Measurements from article PMC8512844, “Olive Pomace Phenolic Compounds Stability and Safety Evaluation: From Raw Material to Future Ophthalmic Applications” (Molecules, 2021).

Assays:
[1] = system: immortalized human conjunctival epithelial (IM-ConjEpi) cells; test: In vitro genotoxicity, alkaline comet assay; type: cell-based; conditions: 24 h, 0.8 mg/mL CONV, 0.4 mg/mL OPT3, 300 μM OL, 100 μM HT, 5 μM + 50 μM OL+HT
Description: (§1) According to the ICH guideline S2 (R1), comet assay evaluates the cell DNA damage under a neutral or alkaline electrophoretic field. This leads to the separation between intact and damaged cellular DNA, creating the typical “comet tail” visible from a microscope. By measuring this tail, the extent of the DNA damage can be estimated. In this study, we applied alkaline electrophoresis, because it is more sensitive and can detect smaller amounts of DNA damages, including single and double-stranded DNA breaks, alkali labile DNA adducts, and most oxidative DNA damage.
(§2) Two different human ocular surface cell lines were selected for this assay: HCE and the IM-ConjEpi. The two selected OP extracts (CONV and OPT3) were tested for their in vitro genotoxicity on both cell lines, together with the two principal pure olive compounds OL and HT, alone or in combination (OL+HT). For each compound or extract, the maximum allowable concentration was selected to be tested, based on the results of their in vitro cytotoxicity on the same cell lines, as previously described.
(§3) HCE is an immortalized human corneal epithelial cell line, kindly offered by Dr. Arto Urti (University of Helsinki, Finland). It was cultured in DMEM/F-12 + GlutaMax supplemented with 10% fetal bovine serum, 10 ng/mL human epithelial growth factor, 5 μg/mL human insulin and antibiotics (100 U/mL penicillin + 0.1 mg/mL streptomycin). IM-ConjEpi was supplied by Innoprot (Derio, Spain. Ref. P10870-IM) and is an SV40- Large T Antigen immortalized human conjunctival epithelial cell line. It was cultured in DMEM/F-12 + GlutaMax supplemented with 10% fetal bovine serum, 10 ng/mL human epithelial growth factor, 1 μg/mL bovine insulin and antibiotics ([…]). HCE cell line was used from passage 25 to 35, while IM-ConjEpi from passage 10 to 20.
(§4) The cells were incubated at 37 °C and 5:95 = CO2:air atmosphere ratio, while their medium was changed every second day. Observations through a phase-contrast microscope were carried out daily.
(§5) For the in vitro tests, HT, OL, CONV, and OPT3 were dissolved in culture medium (DMEM/F-12 + GlutaMax, without any supplement) the day of the experiment. As previously described, CONV was produced by conventional solid–liquid extraction using freeze-dried material without any further pretreatment. OPT3 was generated by PLE extraction using freeze-dried material previously defatted with scCO2. The part of the extracts not dissolved to the culture medium was filtered through a 0.20 μm polyvinylidene fluoride sterile filter. The in vitro concentrations were selected according to a previous study, which described the maximum allowable non-toxic concentration of HT, OL, CONV, and OPT3 on the two ocular surface cell lines used. […]

[2] = system: human corneal epithelial (HCE) cells; test: In vitro genotoxicity, alkaline comet assay; type: cell-based; conditions: 24 h, 0.8 mg/mL CONV, 0.4 mg/mL OPT3, 300 μM OL, 100 μM HT, 5 μM + 50 μM OL+HT
Description: as §1, §2, §3, §4, §5

[3] = Long-term storage stability of aqueous solutions (CPMP/ICH/2736/99), HPLC-DAD relative quantification; type: physicochemical; conditions: for stability as pure solution: first 30 days; for kobs (first-order degradation rate constant) / t1/2 (half-time period) / tlag (lag time): pure aqueous solution
Method: According to the guidance CPMP/ICH/2736/99, aqueous solutions of HT, OL, OPT3 extract, and CONV extract were stored at four different conditions of temperature (ambient, refrigerated, […], and intermediate) and humidity. The conditions were: T = 5 ± 3 °C (with no humidity), T = 25 ± 2 °C (with 60 ± 5% RH), T = 30 ± 2 °C (with 65 ± 5% RH) and T = 40 ± 2 °C (with 75 ± 5% RH) up to a final duration of 6 months. For OPT3, HT was relatively quantified as % with respect to the concentration (C0) at the initial time (t0), while for CONV both % HT and % OL content were calculated similarly. […] The stability of up to 6 months is presented in the Figure S1 of the Supplementary Material. […] The lag time (tlag) represents the time that the concentration of the compound remains constant and, if present, is determined as the intercept of the initial degradation time with the initial concentration value. The half-life period (t1/2) is calculated from Equation (2). The degradation constant (kobs), the t1/2, and the time lag (tlag) together with the correlation coefficient (R^2) for each compound and storage condition are presented in Table 5. ln(C0/Ct) = kobs(t - tlag)(1) t1/2 = ln(2)/k + tlag(2) The quantitative determination of HT, TY, and OL was performed by an HPLC-DAD system: Waters e2695 separation module with an autosampler (20 μL injection volume) and a quaternary pump, coupled with Waters 2998 photodiode array detector set at 280 nm (Waters®, Dublin, Ireland). A C18 Mediterranean Sea column (250 × 4.6 mm, 5 μm) (Teknokroma Analítica S.A., Barcelona, Spain) at 35 °C connected with an OptiGuard 1 mm guard column (Sigma-Aldrich, St. Louis, MO, USA) were used. The gradient method, together with the eluents and the elution program used, were selected according to […] et al.. Calibration curves for OL (range: 12.5-1250 mg/L, linearity: […] R^2 = 0.9969) were prepared, using standard solutions of the compounds in DMSO, and analyzed in the same conditions as the samples. Compounds in the extracts were identified by comparing the retention time and the UV spectra of the samples with those of the standard solutions, while MS spectra were also used to confirm identification (see 3.7.1. for experimental conditions). […] Samples and calibration curves of standard solutions were analyzed within the same day. For the 6-months storage stability, relative quantification was performed with respect to the initial quantity t0 of each analyte. For data acquisition and processing, Empower® 3 software (Waters®, Dublin, Ireland) was used. Briefly, all compounds and extracts were dissolved in Milli-Q water, as high mineralization could increase the degradation of these substances. Additionally, according to the bibliography, lower concentrations could accelerate the decomposition of a compound. […] All solutions were filtered through a 0.20 μm polyvinylidene fluoride filter. […] To fix the desired humidity for each temperature, appropriate salts have been used according to the bibliography. […] The vials were placed in big glass containers, together with a sufficient quantity of each salt. Then, they were closed airtight and left in different rooms of controlled temperature and protected from light for 6 months. […] For CONV, HT and OL content were measured, while for OPT3 only HT content was calculated due to the lack of OL in this extract. All samples were analyzed in triplicate and the results are expressed as mean of the percentage with respect to the initial concentration t0 ± SD.

Compound	Genotoxic effect (%TDNA) versus control group [1]	Genotoxic effect (%TDNA) versus control group [2]	kobs (first-order degradation rate constant) ([3]; T = 5 °C/no humidity) [day⁻¹]	t1/2 (half-time period) ([3]; T = 5 °C/no humidity) [days]	tlag (lag time) ([3]; T = 5 °C/no humidity) [days]	kobs (first-order degradation rate constant) ([3]; T = 25 °C/60% RH) [day⁻¹]	t1/2 (half-time period) ([3]; T = 25 °C/60% RH) [days]	tlag (lag time) ([3]; T = 25 °C/60% RH) [days]	kobs (first-order degradation rate constant) ([3]; T = 30 °C/65% RH) [day⁻¹]	t1/2 (half-time period) ([3]; T = 30 °C/65% RH) [days]	tlag (lag time) ([3]; T = 30 °C/65% RH) [days]	kobs (first-order degradation rate constant) ([3]; T = 40 °C/75% RH) [day⁻¹]	t1/2 (half-time period) ([3]; T = 40 °C/75% RH) [days]	tlag (lag time) ([3]; T = 40 °C/75% RH) [days]	other results
C/C=C1/[C@H](O[C@@H]2O[C@H](CO)[C@@H](O)[C@H](O)[C@H]2O)OC=C(C(=O)OC)[C@H]1CC(=O)OCCc1ccc(O)c(O)c1 [OL, oleuropein]	No statistically significant differences	No statistically significant differences	0.0099	81.3	11.3	0.0065	116.5	9.9	0.4022	1.7	0	0.3658	1.9	0	stability as pure solution ([3]; 5 °C or 25 °C): remains at high levels; stability as standard solution ([3]; 25 °C or below): stable for up to 1 month; half-life at 113 mg/L ([3]; aqueous solution of the pure compound, pure solution, temperature above 30 °C, read-out: t1/2 (time to reduce the concentration to half of the initial value) (converted)): ~72 h; time the compound remains stable ([3]; pure solution, temperature values below 25 °C): approximately 11 days; final content compared to t0 ([3]; standard solution, 5 °C and 25 °C, 6 months): ca. 35%; stability as pure solution ([3]; temperature values above 30 °C): highly unstable
OCCc1ccc(O)c(O)c1 [HT, hydroxytyrosol]	No statistically significant differences	No statistically significant differences	0.0069	101.5	1.0	0.0337	21.6	1.0	0.1068	6.5	0	0.1234	5.6	0	stability as standard solution ([3]; 5 °C, first month): stable at a high percentage for the entire month; time from which the standard solution is completely degraded ([3]; 25 °C): fourth month; time from which the standard solution is completely degraded ([3]; 30 °C and 40 °C): third month
